{"source": "patent US20260242320A1", "about": "“USE OF CANNABIDIOL DERIVATIVE IN PREPARATION OF MEDICAMENT” (priority 2023, published 2026)", "key": {"[1]": {"system": "LPS-induced proinflammatory factor nitric oxide (NO) in immunocompetent BV-2 cells", "test": "NO assay: inhibition of LPS-induced NO overproduction in BV-2 cells", "assay_type": "cell-based", "conditions": "Mus musculus; BV-2 cells, LPS 200 ng/mL, 24 h; read-out: Antineuroinflammatory activity (IC50 inhibiting LPS-induced NO)", "method": "BV-2 cells were seeded at a density of 5×10^4 cells per milliliter in 96-well plates. After 24 h incubation, the media was removed and changed to DMEM without FBS and penicillin-streptomycin. LPS (200 ng/mL) and different concentrations of compounds were added. After 24 h treatment, 100 μL of media was transferred to flat black 96-well micro fluor plates, and then, 10 μL of 0.05 mg/mL 2,3-diaminonaphthalene was added and incubated in the dark for 15 min. 5 μL of NaOH (3 M) was subsequently added to each well to quench the reaction. NO inhibition ratio was analyzed by a SYNERGY H1 Microplate Reader (BioTek Instruments, Carlsbad, CA, USA) with excitation at 360 nm and emission at 430 nm. The fluorescence value of the LPS-treated group was set as 100%."}, "BV-2 cellular viability": {"system": "BV-2 cellular viability", "test": "Cell viability / cytotoxicity by crystal violet staining", "assay_type": "cell-based", "method": "100 μL of culture medium were transferred to a black 96-well plate for later use. Following removal of old culture medium, 100 μL of 4% paraformaldehyde was added for fixation. Fixation was performed for 5 minutes. Paraformaldehyde was then removed, and 100 μL of 0.05% crystal violet was added. The resultant mixture was incubated for 15 minutes, after which time crystal violet was removed and the mixture was slowly rinsed with water three times. Next, 150 μL of ethanol was added, and the mixture was incubated for 15 minutes. After incubation, the absorbance was measured at 540 nm using a spectrophotometer. Viability (%)=100× Fluorescence values of the dosing group/Fluorescence values of the blank group.\nCell viability was determined by crystal violet staining. Briefly, BV-2 cells were treated as indicated in the NO assay. The media was removed, and then 4% paraformaldehyde was added to fix the cells for 5 min. Cells were stained with 100 μL 0.05% crystal violet for 15 min and washed with water 2 times. Next, 150 μL of ethanol was added to each well, and the plate was incubated for 15 min at room temperature. Absorbance at 540 nm was measured using a SYNERGY H1 Microplate Reader."}, "morphine-dependent mice": {"system": "morphine-dependent mice", "test": "Naloxone-precipitated morphine withdrawal jumps", "assay_type": "in vivo", "conditions": "2 μg/kg, 20 μg/kg, 0.2 mg/kg i.p., 0.2 mg/kg", "method": "Mice were intraperitoneally injected with an escalating dose of morphine three times daily for 3 days (5, 20, and 40 mg/kg) to induce addiction. On the fourth day, mice were given morphine (40 mg/kg) or vehicle (5 mL/kg). […] The withdrawal was precipitated by naloxone. Each mouse was placed into a transparent plastic box immediately, and the number of jumps was recorded for 15 min."}, "morphine-treated mice": {"system": "morphine-treated mice", "test": "Morphine-induced behavioral sensitization", "assay_type": "in vivo", "conditions": "0.2 mg/kg i.p.", "method": "Mice were placed into the test chamber (40×40×40 cm^3) for 60 min to habituate the chamber for three consecutive days. […] Locomotor activity was recorded daily for 60 min after the administration of drugs. Next, all the mice were subjected to a 7-day withdrawal period (days 8-14). Subsequently, mice were given morphine (5 mg/kg, i.p.), and locomotor activity was recorded to determine behavioral sensitization."}, "[2]": {"test": "Y-maze test of short-term memory", "assay_type": "in vivo, mice", "conditions": "CIAC001 20 mg/kg i.p.; THC 10 mg/kg i.p.", "method": "Mice were tested for short-term memory using a Y-maze task. Briefly, mice were placed into the Y-maze for 10 min once daily to habituate the apparatus for two consecutive days. After daily habituation, the mice were then treated with CIAC001 (20 mg/kg) or THC (10 mg/kg). On the 3rd day, mice were pretreated with CIAC001 or THC 45 min before the Y-maze test. Next, the “new arm” was blocked, and mice had 5 min to freely explore two arms (the “start arm” and the “old arm”, FIG. 8F). Mice were then removed from the Y-maze and placed into the cages for 2 min. During the test phase, mice were allowed to freely explore all three arms for 2 min, and the time spent in each arm was recorded and analyzed using the Noldus analyzing software. To eliminate olfactory interference, the Y-maze was wiped off with 70% alcohol after each test."}, "[3]": {"test": "Body weight during 7 days of administration", "assay_type": "in vivo, mice", "conditions": "during drug treatment vs vehicle", "method": "Mice were intraperitoneally injected with 20 mg/kg CIAC001 or 10 mg/kg THC once daily. After 1 h, the mice were anesthetized with isoflurane by a small animal anesthesia machine (R500IE, RWD Life Science Co) on day 2 and day 5. The respiratory rate of mice was recorded three times within 20 s. The weights of mice were recorded every day."}, "[4]": {"system": "lactate dehydrogenase A (LDHA) mRNA", "test": "LDHA mRNA in LPS-treated BV-2 cells", "assay_type": "cell-based", "conditions": "3 hours", "method": "Total RNA was extracted from cells or mouse brains using the RNeasy Mini Kit. Isolated RNA was reverse-transcribed into cDNA using an RT2 Easy First Strand cDNA Synthesis Kit following the manufacturer's protocols. PCR amplification was conducted using synthetic primers, SYBR Green, and a TOptical Real-Time qPCR Thermal Cycler (Analytik Jena, Thuringia, Germany). The data were analyzed by the […] method, and Rpl711 or Rpl27 was used as an internal control."}, "lactate in BV-2 culture": {"system": "lactate in BV-2 culture", "test": "Extracellular lactic acid assay", "assay_type": "cell-based", "conditions": "BV-2, 10 μM, LPS 200 ng/mL, 12 h", "method": "BV-2 cells were seeded at a density of 5×10^5 cells per well in 6-well plates and incubated for 24 h. BV-2 cells were treated with 10 μM CIAC001 or 10 μM Compound 19b in the absence or presence of 200 ng/mL LPS for 12 h. Culture medium was collected and centrifuged (5000 g, 4° C.) for 5 min. The supernates were used for lactic acid contents determination by lactic acid assay kit (A019-2-1, Nanjing Jiancheng Bioengineering Institute)."}, "Hif-1α": {"system": "Hif-1α", "test": "Hif-1α western blot in mPFC after chronic morphine", "assay_type": "in vivo", "conditions": "mice", "description": "ImageJ was used for densitometric analysis."}}, "note": "“Also recorded” adds a separate entry of the source.", "data": [{"compound": "C=C(C)[C@@H]1CCC(C)=C[C@H]1c1c(O)cc(C(C)n2nccn2)cc1O", "note": "(stereo partly drawn) [CIAC001, (1′R,2′R)-4-(1-(2H-1,2,3-Triazol-2-yl)ethyl)-5′-methyl-2′-(prop-1-en-2-yl)-1′,2′,3′,4′-tetrahydro-[1,1′-biphenyl]-2,6-diol]", "values": [{"measurement": "IC50", "setting": "[1]", "value": "2500 ± 700", "unit": "nM"}, {"measurement": "IC50", "setting": "BV-2 cellular viability; Mus musculus, BV-2 cells, read-out: Cellular toxicity (IC50 inhibiting BV-2 cellular viability)", "value": "57.8 ± 7.6", "unit": "µM"}, {"measurement": "fold less cytotoxicity compared to CBD", "setting": "BV-2 cellular viability; vs CBD", "value": 6.8, "unit": "fold"}, {"measurement": "naloxone-precipitated withdrawal jumps", "setting": "morphine-dependent mice", "value": "dose-dependently attenuated; also recorded: ameliorated"}, {"measurement": "locomotor response to morphine challenge (expression of behavioral sensitization)", "setting": "morphine-treated mice; day 15", "value": "decreased the locomotor response"}, {"measurement": "development of morphine-induced behavioral sensitization (induction period)", "setting": "morphine-treated mice; mice", "value": "significantly inhibited; also recorded: ameliorated"}, {"measurement": "time spent on the new arm (Y maze)", "setting": "[2]", "value": "did not affect the time mice spent on the new arm"}, {"measurement": "body weights", "setting": "[3]", "value": "did not change"}, {"measurement": "LPS-induced LDHA mRNA overexpression", "setting": "[4]", "value": "significantly inhibited"}, {"measurement": "LPS-induced lactate release", "setting": "lactate in BV-2 culture", "value": "significantly inhibited"}, {"measurement": "chronic morphine-induced Hif-1α overexpression in mPFC", "setting": "Hif-1α", "value": "inhibit chronic morphine-induced Hif-1α overexpression"}]}]}
